Residues, ends and D or L forms follow the SMILES beside them. *: point of attachment. X1 = CSc1ncccc1C(=O)*
Legend:
[1] = target: T1, Neuropeptide Y receptor type 2 (Homo sapiens, UniProt P49146); test: Displacement of [125I]PYY from human NPY2
T1 sequence (P49146 whole entry): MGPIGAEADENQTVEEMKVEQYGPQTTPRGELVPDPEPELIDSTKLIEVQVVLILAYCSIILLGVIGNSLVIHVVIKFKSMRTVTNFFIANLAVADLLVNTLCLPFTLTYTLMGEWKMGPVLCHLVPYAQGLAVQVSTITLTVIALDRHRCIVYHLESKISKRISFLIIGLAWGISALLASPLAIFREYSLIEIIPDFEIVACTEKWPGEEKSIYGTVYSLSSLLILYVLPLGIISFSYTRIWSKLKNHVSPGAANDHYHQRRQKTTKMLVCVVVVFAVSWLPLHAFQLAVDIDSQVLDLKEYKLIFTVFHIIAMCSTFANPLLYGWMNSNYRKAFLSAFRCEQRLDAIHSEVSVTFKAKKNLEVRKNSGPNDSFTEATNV

[2] = target: T2, Neuropeptide Y receptor type 5 (Homo sapiens, UniProt Q15761); test: Displacement of [125I]PYY from human NPY5
T2 sequence (Q15761 whole entry): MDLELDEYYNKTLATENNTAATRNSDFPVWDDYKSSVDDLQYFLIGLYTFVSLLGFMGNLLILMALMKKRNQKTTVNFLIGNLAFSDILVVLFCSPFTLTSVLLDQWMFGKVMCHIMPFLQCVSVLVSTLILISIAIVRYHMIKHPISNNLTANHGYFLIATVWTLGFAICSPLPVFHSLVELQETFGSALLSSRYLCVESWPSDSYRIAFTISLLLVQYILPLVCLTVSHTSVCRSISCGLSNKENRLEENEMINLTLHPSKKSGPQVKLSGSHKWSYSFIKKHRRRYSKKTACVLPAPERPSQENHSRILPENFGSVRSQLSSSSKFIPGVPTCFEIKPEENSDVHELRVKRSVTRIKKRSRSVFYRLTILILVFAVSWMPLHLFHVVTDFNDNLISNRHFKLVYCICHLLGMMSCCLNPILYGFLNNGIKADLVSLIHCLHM

[3] = target: T3, Neuropeptide Y receptor type 1 (Homo sapiens, UniProt P25929); test: Displacement of [125I]PYY from human NPY1
T3 sequence (P25929 whole entry): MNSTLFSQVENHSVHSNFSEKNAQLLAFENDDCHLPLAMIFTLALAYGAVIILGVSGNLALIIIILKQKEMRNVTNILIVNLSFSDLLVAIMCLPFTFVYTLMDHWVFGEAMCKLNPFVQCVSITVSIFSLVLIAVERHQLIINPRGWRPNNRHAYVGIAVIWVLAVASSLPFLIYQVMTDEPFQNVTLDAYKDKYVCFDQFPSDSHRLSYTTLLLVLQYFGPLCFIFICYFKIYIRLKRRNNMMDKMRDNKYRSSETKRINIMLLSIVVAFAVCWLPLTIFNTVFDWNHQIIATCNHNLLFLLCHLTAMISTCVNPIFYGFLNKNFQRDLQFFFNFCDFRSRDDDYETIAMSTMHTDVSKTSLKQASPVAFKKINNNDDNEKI

[4] = target: T1, Neuropeptide Y receptor type 2; test: Agonist activity at human NPY2 by [35S]GTPgammaS […] assay; format: functional

- Ki [1]: 11 nM (antagonist)
- Ki [2]: > 1000 nM
- Ki [3]: > 1000 nM
- EC50 [4]: 4 nM (agonist)
Structure (SMILES): CSc1ncccc1C(=O)N[C@@H](CCCNC(=N)N)C(=O)N[C@@H](Cc1cnc[nH]1)C(=O)N[C@@H](Cc1ccc(O)cc1)C(=O)N[C@@H](CC(C)C)C(=O)N[C@@H](CC(N)=O)C(=O)N[C@@H](CC(C)C)C(=O)N[C@@H](CC(C)C)C(=O)N[C@H](C(=O)N[C@@H](CCCNC(=N)N)C(=O)N[C@@H](CCC(N)=O)C(=O)N[C@@H](CCCNC(=N)N)C(=O)N[C@@H](Cc1ccc(O)cc1)C(N)=O)[C@@H](C)O (X1-RHYLNLLTRQRY-NH2)

Reference: ChEMBL document CHEMBL1147158, “Novel selective neuropeptide Y2 receptor PEGylated peptide agonists reduce food intake and body weight in mice” (J Med Chem, 2007)
